According to PMC8434099, “Selected Drug-Likeness Properties of 2-Arylidene-indan-1,3-dione Derivatives—Chemical Compounds with Potential Anti-Cancer Activity” (Molecules, 2021):

Assays:
[1] = tested on: Human Serum Albumin (HSA); test: Binding to albumin, fluorescence quenching; conditions: calculated from association constant KS for albumin concentration in blood of 44 mg/mL (660 μM); for fraction unbound: human, human serum albumin solution (10 µM HSA), pH 7.4, read-out: free fraction (albumin)
Description: Fluorescence lifetime and fluorescence intensity of HSA solutions were measured using the time-resolved Fluorescence Spectrophotometer Life Spec II (Edinburgh Instruments Ltd., Livingston, UK) with the sub-nanosecond pulsed EPLED diode emitting a light of the wavelength 280 nm. The spectrometer was equipped with electronically cooled photomultiplier Hamamatsu R928 connected with TCC900 PC Card, which incorporates all the electronic modules required for Time-Correlated Single Photon Counting (TCSPC). The fluorescence decays were recorded at an emission wavelength of 350 nm. The data were fitted with an exponential decay to obtain total fluorescence intensity and lifetime. Measurements were performed at room temperature using quartz cuvettes 3.5 × 10 mm. The exposure time of the sample was 30 s. A spectrophotometer Jasco V-550 was used for absorption measurements.
Human Serum Albumin (HSA, 97%) was purchased from Sigma Aldrich. For the fluorescence quenching measurements, the 10 µM PBS solution of HSA at pH 7.4 was prepared, and 10 mM stock solutions of studied compounds were prepared in DMSO (dimethylsulfoxide). The final concentration of studied compounds in HSA solution varied between 0 and 70 µM.
Fluorescence quenching of albumin can be described by the Stern–Volmer Equation [21]: (3) F0/F=KSV[Q]+1, where F0 and F are the fluorescence intensities in the absence and presence of quencher, respectively, [Q] is the concentration of quencher, and KSV is the Stern–Volmer quenching constant.
Due to the fact that a quencher can absorb light at the excitation and/or emission wavelengths, the measured intensity should be corrected according to the Formula [22]:(4) Fobserved=Fcorrect×10^−Aex×dex/2−Aem×dem/2, where Fobserved is the measured fluorescence, Fcorrect is the fluorescence that would be measured in the absence of absorption effect, Aex and Aem are the absorbances of ligand at the excitation (280 nm) and emission wavelength (350 nm), respectively, and dex and dem are the cuvette pathlength in the excitation and emission direction (0.35 cm and 1 cm, respectively).
As the fluorophore can be quenched by collisions or by complex formation with the quencher, there are two types of quenching: dynamic and static. They can be distinguished by lifetime measurements. […] If the quenching is known to be dynamic, then:(5) F0/F=KD[Q]+1=τ0/τ, where τ0 and τ are the lifetimes in the absence and presence of quencher, and KD is the dynamic quenching constant.
In many cases, both static and dynamic quenching occurs for the same fluorophore, then modified Stern–Volmer equation has the form:(6) F0/F=(KD[Q]+1)(KS[Q]+1)=τ0/τ(KS[Q]+1),
The dynamic portion of the quenching (KD[Q] + 1), according to Equation (5), can be determined by lifetime measurements. The portion (KS[Q] + 1) relates to static quenching, and KS is the association constant, which is given by:(7) KS=[F−Q]/[F][Q], where [F−Q] is the concentration of complex fluorophore–quencher, [F] is the concentration of uncomplexed fluorophore (concentration of free HSA molecules), and [Q] is the concentration of quencher.
In this study, the tested compounds were added to the HSA solution, and the fluorescence intensity and lifetime at 350 nm were measured for varying concentrations of ligands. On the basis of absorbance measurements of ligands at 280 nm and 350 nm, the correct fluorescence intensities were estimated using Equation (4). Then, the Stern–Volmer constants, dynamic quenching constants, and association constants of studied compounds were determined using Equations (3), (5) and (6), respectively.
Knowing the value of association constant KS, it is possible to determine the theoretical percentage of the bound and free fraction of the drug for the physiological concentration of albumin. […]

[2] = Chromatographic (RP-HPLC) examination of lipophilicity, Snyder–Soczewiński model; type: physicochemical; conditions: for logkw (ACN) / logkw (MeOH): RP-HPLC, extrapolated Snyder–Soczewiński curve; for logkw (ACN) / −S (ACN): acetonitrile as organic modifier; for logkw (MeOH) / −S (MeOH): methanol as organic modifier; for Δ = |logkw-MeOH − logkw-ACN|: difference of logkw between modifiers; for −S (ACN) / −S (MeOH): slope of the Snyder–Soczewiński regression curve; for Compliance with the lipophilicity assumption of the Lipiński’s rule (logkw below 5): analyses using methanol as a modifier
Description: The chromatographic analysis was carried out on a Shimadzu device equipped with a pump system (LC-20AD model), a detector with a diode bench (SPD-M20A model), a degasser (DGU-20A 5R model), a chromatographic oven (CTO-10AS VP), autosampler (SIL-20AC HT model), and chromatographic column (LiChrospher 100 RP-18, 5 μm, Poznań, Poland). Analyses were performed, leading to a multicratic elution. The mobile phase was methanol (J. T. Backer, Phillipsburg, NJ, USA) or acetonitrile (J. T. Backer) and water (Hydrolab, HPL5UV model, Straszyn, Poland) in different volume ratios. In individual analyses, the concentration of the organic modifier expressed as a […] was 0.75–0.95 with a constant step of 0.05. The test compounds were dissolved in methanol. The injection volume was 10 µL. The flow was set at 1 mL/min, the temperature of the chromatography oven at 25 °C, and the detector temperature at 2 °C higher than the ambient temperature. Compounds were detected in the range 190–800 nm. All samples were tested in duplicate at least. Column dead time (tM) was determined using uracil (Sigma Aldrich). The retention coefficient was calculated using the following formula:(1) k=tR/tM−1, where tR is the retention time of the test compound in a given eluent composition, and tM is the chromatographic column dead time.
The value of lipophilicity was determined using the linear dependence of the decimal logarithm from the retention coefficient (logk) and the concentration of the organic modifier in the mobile phase, which was expressed as a volume fraction. For this purpose, the following formula was used:(2) logk=logkw+Sφ, where logk is the decimal logarithm of the retention coefficient, logkw is the value obtained by extrapolating the curve, S is the slope of the regression curve, and φ is the volume fraction of the organic modifier.
The coefficient of determination (R^2) was also calculated for the prepared curves.

A549 cells = test: Antiproliferative activity, MTT protocol; type: cell-based, human; conditions: 0.01 mg/mL, 72 h, relative to control culture
Description: (§1) Mouse melanoma (B16F10), human lung carcinoma (A549), and human cervix (HeLa) cell lines (kindly gifted by Prof. Tomasz Drewa, a Chair of Urology, Department of Regenerative Medicine, Collegium Medicum, Nicolaus Copernicus University, Bydgoszcz, Poland) were cultivated at 37 °C, controlled CO2 atmosphere (Binder, Tuttlingen, Germany), and high humidity with RPMI cell culture medium (with L-glutamine and sodium bicarbonate, Sigma-Aldrich), supplemented with 10% of fetal bovine serum (FBS, Biowest, Nuaillé, France), as well as antibiotics (penicillin, streptomycin) and antimycotics (amphotericin B) (Sigma-Aldrich). Combretastatin A4 (CA4), doxorubicin (DoX), and […] were purchased from Sigma-Aldrich.
(§2) Cells were counted with an automated cell counter (Countess® II FL, Invitrogen by Thermo Fisher Scientific Inc., Waltham, MA, USA). A number of 1 × 10^3 (B16F10, A549) or 2.5 × 10^3 cells were plated in each well of 96-well plate (Nunc Edge 2F, Thermo Fisher Scientific Inc.) and left for 24 h incubation prior to drug administration. After this period, the medium was replaced with a fresh medium containing the drugs (at final concentration of 0.01 mg/mL) and left for incubation for the next 72 h. A solution of thiazol blue tetrazolium (MTT, Sigma-Aldrich) was prepared in PBS at concentration of 5 mg/mL and administrated to the cell culture medium at the volume of 10% of the initial medium volume. After 2 h of incubation, the medium was removed, and crystals of formazan were solubilized in isopropanol (Sigma-Aldrich). Absorbance readout was conducted using plate reader Multiskan Spectrum (Thermo Electron Corporation, Waltham, MA, USA) at 570 nm.
(§3) Combretastatin A4 (CA4), doxorubicin (DX), and […] were employed as positive controls. Biological evaluation was performed as three independent experiments; mean response and standard deviation were calculated using Excel software (v. 2013, Microsoft Corporation, Redmond, WA, USA).

HeLa cells = test: Antiproliferative activity, MTT protocol; type: cell-based, human; conditions: 0.01 mg/mL, 72 h
Description: as §1, §2, §3

SMILES	bound fraction (albumin) [1] [%]	fraction unbound [1]	logkw (ACN) [2]	logkw (MeOH) [2]	Δ = |logkw-MeOH − logkw-ACN| [2]	−S (ACN) [2]	−S (MeOH) [2]	Compliance with the lipophilicity assumption of the Lipiński’s rule (logkw below 5) [2]	Inhibition of development and division of A549 cells (in words) (A549 cells)	Number of HeLa cells compared to the control culture (HeLa cells) [%]	Effect on HeLa cells (in words) (HeLa cells; relative to control culture)
O=C1C(=Cc2ccccc2)C(=O)c2ccccc21 [Compound 3A, 2-benzylidene-1H-indene-1,3(2H)-dione]	97	0.03	2.2433	3.3210	1.0777	2.4449	3.3278	–	–	–	–
CN(C)c1ccc(C=C2C(=O)c3ccccc3C2=O)cc1 [Compound 3B, 2-{[4-(dimethylamino)phenyl]methylidene}-1H-indene-1,3(2H)-dione]	94	0.06	2.2394	3.2790	1.0396	2.3613	3.1597	–	–	–	–
COc1ccc(C=C2C(=O)c3ccccc3C2=O)cc1 [Compound 3C, 2-(4-methoxybenzylidene)-1H-indene-1,3(2H)-dione]	94	0.06	2.3042	3.3554	1.0512	2.4879	3.2782	–	–	–	–
Cc1ccc(Oc2ccc(C=C3C(=O)c4ccccc4C3=O)cc2)cc1 [Compound 3D, 2-{[4-(4-methylphenoxy)phenyl]methylidene}-1H-indene-1,3(2H)-dione]	97	0.03	3.5726	5.6763	2.1037	3.5570	5.4798	do not meet this basic assumption of the Lipiński’s rule	most strongly inhibited	–	–
COc1ccc(C=C2C(=O)c3ccccc3C2=O)cc1O [Compound 3E, 2-[(3-hydroxy-4-methoxyphenyl)methylidene]-1H-indene-1,3(2H)-dione]	97	0.03	1.5356	2.2321	0.6965	1.9201	2.4114	–	–	–	–
COc1ccc2c(OC)ccc(C=C3C(=O)c4ccccc4C3=O)c2c1 [Compound 3G, 2-[(4,7-dimethoxynaphthalen-1-yl)methylidene]-1H-indene-1,3(2H)-dione]	88	0.12	2.8533	–	1.7531	2.8762	–	–	most strongly inhibited	7.15 ± 3.12	more effective than the control compounds
O=C1C(=Cc2ccoc2)C(=O)c2ccccc21 [Compound 3H, 2-[(furan-3-yl)methylidene]-1H-indene-1,3(2H)-dione]	95	0.05	1.9162	2.5521	0.6359	2.2011	2.6243	–	–	–	–
O=C1C(=Cc2ccc(N(c3ccccc3)c3ccccc3)cc2)C(=O)c2ccccc21 [Compound 3I, 2-{[4-(diphenylamino)phenyl]methylidene}-1H-indene-1,3(2H)-dione]	83	0.17	3.8489	5.3524	1.5035	3.7589	5.0483	do not meet this basic assumption of the Lipiński’s rule	–	–	–
O=C1C(=Cc2ccc(O)cc2)C(=O)c2ccccc21 [Compound 3J, 2-[(4-hydroxyphenyl)methylidene]-1H-indene-1,3(2H)-dione]	96	0.04	–	2.3814	1.3880	–	2.5802	–	–	–	–
O=C1C(=CC2=Cc3cc(O)ccc3OC2)C(=O)c2ccccc21 [Compound 3K, 2-[(6-hydroxy-2H-1-benzopyran-3-yl)methylidene]-1H-indene-1,3(2H)-dione]	92	0.08	1.7720	2.9717	1.1997	2.1213	3.0667	–	–	–	–
